ChEMBL document CHEMBL1201862, “PubChem BioAssay data set” (2004)
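Exposure lasted 48 hours, with cells grown in 96-well plates and compounds tested at five concentrations. GI50 is the concentration that inhibits growth by half.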 Calls of active or inactive are those of the source. Rule as the data show it: active = GI50 up to about 1.1 µM and inactive = higher.

Key:
Assay in all cases: NCI anticancer screen, dose series, 48 h
SR = test system: SR
OVCAR-8 = test system: OVCAR-8
OVCAR-4 = test system: OVCAR-4
DLD-1 = test system: DLD-1
SNB-78 = test system: SNB-78
SW-620 = test system: SW-620
UO-31 = test system: UO-31
EKVX = test system: EKVX
CCRF-CEM = test system: CCRF-CEM
HCT-116 = test system: HCT-116
M19-MEL = test system: M19-MEL
TK-10 = test system: TK-10
UACC-62 = test system: UACC-62
SK-OV-3 = test system: SK-OV-3
SK-MEL-28 = test system: SK-MEL-28
HOP-62 = test system: HOP-62
A498 = test system: A498
COLO 205 = test system: COLO 205
HL-60 = test system: HL-60
IGROV-1 = test system: IGROV-1
A549 = test system: A549
NCI-H522 = test system: NCI-H522
HT-29 = test system: HT-29
MOLT-4 = test system: MOLT-4
XF498 = test system: XF498
KM12 = test system: KM12
LXFL 529 = test system: LXFL 529
HCC 2998 = test system: HCC 2998
SK-MEL-2 = test system: SK-MEL-2
NCI-H460 = test system: NCI-H460
HOP-18 = test system: HOP-18
M14 = test system: M14
CAKI-1 = test system: CAKI-1
SF-539 = test system: SF-539
SK-MEL-5 = test system: SK-MEL-5
NCI-H23 = test system: NCI-H23
SF-268 = test system: SF-268
NCI-H226 = test system: NCI-H226
LOX IMVI = test system: LOX IMVI
SNB-75 = test system: SNB-75
786-0 = test system: 786-0
UACC-257 = test system: UACC-257
K562 = test system: K562
HCT-15 = test system: HCT-15
SF-295 = test system: SF-295
RXF 631 = test system: RXF 631
DMS-114 = test system: DMS-114
HOP-92 = test system: HOP-92
Malme-3M = test system: Malme-3M
ACHN = test system: ACHN
U-251 = test system: U-251
SN12C = test system: SN12C
OVCAR-5 = test system: OVCAR-5
RPMI-8226 = test system: RPMI-8226
OVCAR-3 = test system: OVCAR-3
RXF 393 = test system: RXF 393
KM-20L2 = test system: KM-20L2
DMS-273 = test system: DMS-273
SNB-19 = test system: SNB-19

CCOP(=O)(OCC)/C(C#N)=C/c1ccco1
GI50 (SR): > 100 µM (inactive)
GI50 (OVCAR-8): > 100 µM (inactive)
GI50 (OVCAR-4): > 100 µM (inactive)
GI50 (DLD-1): > 100 µM (inactive)
GI50 (SNB-78): > 100 µM (inactive)
GI50 (SW-620): > 100 µM (inactive)
GI50 (UO-31): > 100 µM (inactive)
GI50 (EKVX): > 100 µM (inactive)
GI50 (CCRF-CEM): > 100 µM (inactive)
GI50 (HCT-116): > 100 µM (inactive)
GI50 (M19-MEL): > 100 µM (inactive)
GI50 (TK-10): > 100 µM (inactive)
GI50 (UACC-62): > 100 µM (inactive)
GI50 (SK-OV-3): > 100 µM (inactive)
GI50 (SK-MEL-28): > 100 µM (inactive)
GI50 (HOP-62): > 100 µM (inactive)
GI50 (A498): > 100 µM (inactive)
GI50 (COLO 205): > 100 µM (inactive)
GI50 (HL-60): > 100 µM (inactive)
GI50 (IGROV-1): > 100 µM (inactive)
GI50 (A549): > 100 µM (inactive)
GI50 (NCI-H522): > 100 µM (inactive)
GI50 (HT-29): > 100 µM (inactive)
GI50 (MOLT-4): > 100 µM (inactive)
GI50 (XF498): > 100 µM (inactive)
GI50 (KM12): > 100 µM (inactive)
GI50 (LXFL 529): > 100 µM (inactive)
GI50 (HCC 2998): > 100 µM (inactive)
GI50 (SK-MEL-2): > 100 µM (inactive)
GI50 (NCI-H460): > 100 µM (inactive)
GI50 (HOP-18): > 100 µM (inactive)
GI50 (M14): > 100 µM (inactive)
GI50 (CAKI-1): > 100 µM (inactive)
GI50 (SF-539): > 100 µM (inactive)
GI50 (SK-MEL-5): > 100 µM (inactive)
GI50 (NCI-H23): > 100 µM (inactive)
GI50 (SF-268): > 100 µM (inactive)
GI50 (NCI-H226): > 100 µM (inactive)
GI50 (LOX IMVI): > 100 µM (inactive)
GI50 (SNB-75): > 100 µM (inactive)
GI50 (786-0): > 100 µM (inactive)
GI50 (UACC-257): > 100 µM (inactive)
GI50 (K562): > 100 µM (inactive)
GI50 (HCT-15): > 100 µM
GI50 (SF-295): > 100 µM (inactive)
GI50 (RXF 631): > 100 µM (inactive)
GI50 (DMS-114): > 100 µM (inactive)
GI50 (HOP-92): > 100 µM (inactive)
GI50 (Malme-3M): > 100 µM (inactive)
GI50 (ACHN): > 100 µM (inactive)
GI50 (U-251): > 100 µM (inactive)
GI50 (SN12C): > 100 µM (inactive)
GI50 (OVCAR-5): > 100 µM (inactive)
GI50 (RPMI-8226): > 100 µM (inactive)

Cc1cc(C)nc(NS(=O)(=O)c2ccc(NC(=O)c3cccc4c(Nc5ccc(S(N)(=O)=O)cc5)c5ccccc5nc34)cc2)n1
GI50 (OVCAR-8): 30.3 µM (inactive)
GI50 (OVCAR-4): 35.1 µM (inactive)
GI50 (DLD-1): > 93.3 µM (inactive)
GI50 (OVCAR-3): 9.42 µM (inactive)
GI50 (SNB-78): 9.79 µM (inactive)
GI50 (SW-620): 20.6 µM (inactive)
GI50 (UO-31): > 100 µM (inactive)
GI50 (EKVX): > 100 µM (inactive)
GI50 (CCRF-CEM): 6.82 µM (inactive)
GI50 (HCT-116): 7.64 µM (inactive)
GI50 (M19-MEL): 13.5 µM (inactive)
GI50 (RXF 393): 11.2 µM (inactive)
GI50 (TK-10): > 74.6 µM (inactive)
GI50 (UACC-62): 2.88 µM (inactive)
GI50 (SK-OV-3): 15.2 µM (inactive)
GI50 (SK-MEL-28): 3.09 µM (inactive)
GI50 (HOP-62): 26.7 µM (inactive)
GI50 (A498): > 94.2 µM (inactive)
GI50 (COLO 205): 26.6 µM (inactive)
GI50 (HL-60): 7.4 µM (inactive)
GI50 (IGROV-1): 4.24 µM (inactive)
GI50 (A549): > 100 µM (inactive)
GI50 (KM-20L2): > 75.5 µM (inactive)
GI50 (NCI-H522): 13 µM (inactive)
GI50 (HT-29): 34.9 µM (inactive)
GI50 (MOLT-4): 6.71 µM (inactive)
GI50 (XF498): 39.2 µM (inactive)
GI50 (KM12): 15.4 µM (inactive)
GI50 (LXFL 529): 3.92 µM (inactive)
GI50 (HCC 2998): 14.8 µM (inactive)
GI50 (SK-MEL-2): 10.2 µM (inactive)
GI50 (NCI-H460): 44.1 µM (inactive)
GI50 (HOP-18): > 56 µM (inactive)
GI50 (M14): > 82.6 µM (inactive)
GI50 (CAKI-1): > 100 µM (inactive)
GI50 (SF-539): 3.67 µM (inactive)
GI50 (SK-MEL-5): 19.1 µM (inactive)
GI50 (NCI-H23): 37.1 µM (inactive)
GI50 (SF-268): 6.59 µM (inactive)
GI50 (NCI-H226): > 100 µM (inactive)
GI50 (LOX IMVI): 19.4 µM (inactive)
GI50 (SNB-75): 5.46 µM (inactive)
GI50 (786-0): 50.8 µM (inactive)
GI50 (UACC-257): 28.1 µM (inactive)
GI50 (DMS-273): 34.8 µM (inactive)
GI50 (K562): 7.85 µM (inactive)
GI50 (HCT-15): > 100 µM
GI50 (SF-295): > 66.5 µM (inactive)
GI50 (RXF 631): > 100 µM (inactive)
GI50 (DMS-114): 17.5 µM (inactive)
GI50 (HOP-92): 20.7 µM (inactive)
GI50 (Malme-3M): 18.2 µM (inactive)
GI50 (SNB-19): 4.02 µM (inactive)
GI50 (ACHN): > 100 µM (inactive)
GI50 (U-251): 8.89 µM (inactive)
GI50 (SN12C): 16.1 µM (inactive)
GI50 (OVCAR-5): > 100 µM (inactive)
GI50 (RPMI-8226): 12.8 µM (inactive)
